The values that follow come from ChEMBL document CHEMBL1944615, “Synthesis and biological evaluation of deoxy-hematoxylin derivatives as a novel class of anti-HIV-1 agents” (Bioorg Med Chem Lett, 2012).

SMILES strings stand for the structures. Where only a bound is given, the exact number is not on record here.

The subject of data set [1] is Human immunodeficiency virus 1. The experiment in a line: Antiviral activity against HIV1 NL432 infected in human ConA and IL2-stimulated PBMC assessed as inhibition of viral replication by reverse transcriptase assay. The format is functional, organism-based.
Data set [2] relates to Human immunodeficiency virus 1. The data set is described as follows: Antiviral activity against HIV1 NL432 infected in human TZM-Bl cells assessed as inhibition of viral replication after 2 days by luciferase reporter gene analysis. The class given is functional, organism-based.
Data set [3] deals with Human immunodeficiency virus 1. The experiment in a line: Antiviral activity against HIV1 NF-462 expressing wild-type Vpr infected in human 293T cells containing 4 ng of viral p24 antigen after 8 days by ELISA. The class given is functional, organism-based. On the technique in general: ELISA stands for enzyme-linked immunosorbent assay.
A short description of data set [4]: Cytotoxicity against human MOLT4 cells expressing CD4+ after 2 days by MTT assay. The class given is cell-based, MOLT-4. (Tetrazolium dyes change colour on reduction, which living cells bring about.)
Data set [5] is described as follows: Inhibition of HIV1 VPR/human importin-alpha interaction in human HeLa cells assessed as inhibition of nuclear import of preintegral complex after 15 mins by confocal laser scanning microscopic analysis. The format is cell-based.
The subject of data set [6] is Human immunodeficiency virus 1. The experiment in a line: Antiviral activity against HIV1 NF-462 expressing wild-type Vpr infected in human 293T cells containing 4 ng of viral p24 antigen after 8 days by ELISA relative to hematoxylin. The format is functional.
Data set [7] concerns Human immunodeficiency virus 1. The experiment in a line: Antiviral activity against HIV1 NF-462 expressing wild-type Vpr infected in human 293T cells containing 1 ng of viral p24 antigen after 8 days by ELISA relative to hematoxylin. The format is functional.
Where [8] appears, read: Human immunodeficiency virus 1, NF-462, HEK-293T, 192 h, read-out: IC50.
[9] abbreviates: Human immunodeficiency virus 1, NL432, read-out: IC50.
Where [10] appears, read: Human immunodeficiency virus 1, NL432, TZM-bl, 48 h, read-out: IC50.

By IC50 is commonly meant the midpoint of a concentration-inhibition curve. In general, CC50 refers to the concentration at which the toxic effect on the cells reaches its halfway point. A lower CC50 goes with harm at low concentration. Turning to `Oc1cc2c(cc1O)[C@@H]1c3cccc(O)c3OC[C@]1(O)C2`, the IC50 result in data set [1] was “ND(toxic)”; in data set [2] (tzm-bl) it was “ND(toxic)”; in data set [3] (setting [8]) it was 0.4 µM; in data set [5], 0.9 µM. For the same compound, the midpoint of cytotoxicity in data set [4], the CC50 at 48 h, lay at 32 µM.
In the case of `Oc1cc2c(cc1O)[C@@H]1c3ccccc3OC[C@]1(O)C2`, the 50% inhibitory concentration (IC50) result in data set [2] (tzm-bl) is “ND(toxic)”; in data set [5], 1.9 µM. In data set [4], this compound displayed a CC50 at 48 h of 1.9 µM.
For the compound `Oc1ccc2c(c1)C[C@@]1(O)COc3ccccc3[C@@H]21`, the concentration for half-maximal inhibition (IC50) in data set [1] (setting [9]) is 25.1 µM; in data set [2] (setting [10]), 67.6 µM; in data set [3] (setting [8]), 0.9 µM; in data set [5], 0.6 µM. Further, the CC50 at 48 h in data set [4] amounted to 82 µM.
For the compound `O[C@]12COc3ccccc3[C@H]1c1ccccc1C2`, the concentration for half-maximal inhibition (IC50) entry in data set [2] (tzm-bl) is “Not Active”; in data set [5], 2.7 µM. Moreover, the CC50 at 48 h in data set [4] was above 100 µM.
Turning to `CC1(C)Oc2cc3c(cc2O1)[C@@H]1c2cccc(OCc4ccccc4)c2OC[C@]1(O)C3`, the half-maximal inhibitory concentration (IC50) result in data set [2] (tzm-bl) is “Not Active”; in data set [3] (293t), “Not Active”; in data set [5], 0.8 µM. The same compound gave a CC50 at 48 h in data set [4] above 80 µM.
With `CC1(C)Oc2cc3c(cc2O1)[C@@H]1c2cccc(O)c2OC[C@]1(O)C3`, the “Ratio IC50” value in data set [6] came out at 10; in data set [7] it was 2. Further, the IC50 in data set [1] (setting [9]) stood at 30.1 µM; in data set [2] (setting [10]), 24.6 µM; in data set [3] (setting [8]), 0.1 µM; in data set [5] it was 0.5 µM. In addition, the CC50 at 48 h in data set [4] is above 80 µM.
Take `Oc1cc2c(cc1O)[C@@H]1c3ccc(O)c(O)c3OC[C@]1(O)C2` [HEMATOXYLIN]: the 50% inhibitory concentration (IC50) result was “ND(toxic)” in data set [1], 100 µM in data set [2] (setting [10]), below 1 µM in data set [3] (setting [8]) and 1.3 µM in data set [5]. Also, in data set [4], the CC50 at 48 h was 40 µM.
